Data published in patent US20230013453A1, “RESVERATROL SKIN PREPARATION” (priority 2021, published 2023).

Assay: specification test of 98% trans-resveratrol (FIG. 5): solubility
Format: physicochemical
Conditions: extracted or sieved 98% trans-resveratrol
Source text: It may be in powder form and either white or light yellow in color. […] It is also devoid of any significant amounts of metals, bacteria or other adulterants or additives.

solubility in ethanol: soluble in ethanol
Structure (SMILES): Oc1ccc(/C=C/c2cc(O)cc(O)c2)cc1 [trans-resveratrol]
